Where two headings read alike, the source gives them in different places.
Columns and labels:
[1] = biological target: 20S proteasome chymotrypsin-like activity (Homo sapiens, UniProt P28074); test: Chymotrypsin-like activity inhibition test; assay type: biochemical; settings: for remaining activity at 10 µM: read-out: % Control, Chymotrypsin-like Activity
[2] = biological target: 20S proteasome caspase-like activity (Homo sapiens, UniProt P28072); test: Caspase-like activity inhibition test; assay type: biochemical; settings: for remaining activity at 10 µM: read-out: % Control, Caspase-like Activity
[3] = biological target: 20S proteasome trypsin-like activity (Homo sapiens, UniProt Q99436); test: Trypsin-like activity inhibition test; assay type: biochemical; settings: for remaining activity at 10 µM: read-out: % Control, Trypsin-like Activity
[4] = tested on: Cathepsin B; test: Cathepsin-like activity inhibition test; assay type: biochemical
Description: Cathepsin-Like Activity Inhibition Test
(§1) 1) To 20S proteasome, naforidaifen B adjusted to a concentration of 10 μM was added, and incubated at 30° C. for 10 min.
2) To the above test system, fluorescence labeled cathepsin including a 20S proteasome segmenting sequence was added, and reacted for 1 hr at 30° C.
(§2) 3) The fluorescent substance (AMC) released by the above reaction was excited with 360 nm light and assayed with 460 nm light.
(§3) 4) A test system to which naforidaifen B was not added was measured in the same way as (1) to (3) above, and the enzyme activity for the case of using naforidaifen B was measured.
(§4) 5) Stepwise diluted solutions containing naforidaifen B were prepared, and after carrying out the same evaluations as in (1) to (4), the 50% inhibition concentration (IC50) was determined.
6) As a positive control of the enzyme activity, the known proteasome inhibitor Clasto-Lactacystin β-Lactone (Lactacystin activator) and MGI32 were evaluated with the steps (1) to (5).

[5] = biological target: α-chymotrypsin (Bos taurus, UniProt P00766); test: α-Chymotrypsin-like activity inhibition test; assay type: biochemical
Description: α-Chymotrypsin-Like Activity Inhibition Test
as §1
2) To the above test system, fluorescence labeled α-chymotrypsin including a 20S proteasome segmenting sequence was added, and reacted for 1 hr at 30° C.
as §2, §3, §4
6) As a positive control of the enzyme activity, the well-known proteasome inhibitor Clasto-Lactacystin β-Lactone (Lactacystin activator) and MGI32 were evaluated with the steps (1) to (5).

[6] = biological target: 20S proteasome (Homo sapiens, UniProt P28072+P28074+Q99436); test: Proteasome inhibition activity, overall judgement; assay type: biochemical; settings: for Proteasome selectivity: judgement; for The evaluations (proteasome inhibition activity): overall judgement positive/negative
[7] = tested on: SF-268; test: Inhibition of propagation of central nervous system cancer cells (sulforhodamin B); assay type: cell-based; settings: Homo sapiens, 48 h; SF-268, two days of cultivation
Source text: (§5) As a comparison for the inhibition activity, tamoxifen citrate (TAM) was used. In the Table, the concentration units are μM.

[8] = tested on: SF-295; test: as above; assay type: cell-based; settings: Homo sapiens, 48 h; SF-295, two days of cultivation
Source text: as §5

[9] = tested on: SF-539; test: as above; assay type: cell-based; settings: Homo sapiens, 48 h; SF-539, two days of cultivation
Source text: as §5

[10] = tested on: SNB-75; test: as above; assay type: cell-based; settings: Homo sapiens, 48 h; SNB-75, two days of cultivation
Source text: as §5

[11] = tested on: SNB-78; test: as above; assay type: cell-based; settings: Homo sapiens, 48 h; SNB-78, two days of cultivation
Source text: as §5

[12] = tested on: U251; test: as above; assay type: cell-based; settings: Homo sapiens, U-251, 48 h; U251, two days of cultivation
Source text: as §5

[13] = tested on: HCC2998; test: Proliferation inhibition of colon cancer cells; assay type: cell-based; settings: Homo sapiens, HCC 2998
Description: as §5
(§6) In the same way as in Example 9, the proliferation inhibition activity of naforidaifens A to G was measured with respect to five types of colon cancer cells (HCC2998, KM-12, HT-29, HCT-15, and HCT-116). In the Table, the concentration units are μM.

[14] = tested on: HCT-116; test: Proliferation inhibition of colon cancer cells; assay type: cell-based; settings: Homo sapiens
Description: as §5, §6

[15] = tested on: HCT-15; test: Proliferation inhibition of colon cancer cells; assay type: cell-based; settings: Homo sapiens
Description: as §5, §6

[16] = tested on: HT-29; test: Proliferation inhibition of colon cancer cells; assay type: cell-based; settings: Homo sapiens
Description: as §5, §6

[17] = tested on: KM-12; test: Proliferation inhibition of colon cancer cells; assay type: cell-based; settings: Homo sapiens, KM12
Description: as §5, §6

[18] = tested on: OVCAR-3; test: Proliferation inhibition of ovarian cancer cells; assay type: cell-based; settings: Homo sapiens
Description: as §5
(§7) In the same way as in Example 9, the proliferation inhibition activity of naforidaifens A to G was measured with respect to five types of ovarian cancer cells (OVCAR-3, OVCAR-4, OVCAR-5, OVCAR-8, AND SK-OV-3). In the Table, the concentration units are μM.

[19] = tested on: OVCAR-4; test: Proliferation inhibition of ovarian cancer cells; assay type: cell-based; settings: Homo sapiens
Description: as §5, §7

[20] = tested on: OVCAR-5; test: Proliferation inhibition of ovarian cancer cells; assay type: cell-based; settings: Homo sapiens
Description: as §5, §7

[21] = tested on: OVCAR-8; test: Proliferation inhibition of ovarian cancer cells; assay type: cell-based; settings: Homo sapiens
Description: as §5, §7

[22] = tested on: SK-OV-3; test: Proliferation inhibition of ovarian cancer cells; assay type: cell-based; settings: Homo sapiens
Description: as §5, §7

[23] = tested on: MKN1; test: Proliferation inhibition of stomach cancer cells; assay type: cell-based; settings: Homo sapiens, MKN-1
Description: as §5
(§8) In the same way as in Example 9, the proliferation inhibition activity of naforidaifens A to G was measured with respect to six types of stomach cancer cells (St-4, MKN1, MKN7, MKN28, MKN45, MKN74). In the Table, the concentration units are μM.

[24] = tested on: MKN28; test: Proliferation inhibition of stomach cancer cells; assay type: cell-based; settings: Homo sapiens, MKN-28
Description: as §5, §8

[25] = tested on: MKN45; test: Proliferation inhibition of stomach cancer cells; assay type: cell-based; settings: Homo sapiens, MKN-45
Description: as §5, §8

[26] = tested on: MKN74; test: Proliferation inhibition of stomach cancer cells; assay type: cell-based; settings: Homo sapiens, MKN-74
Description: as §5, §8

[27] = tested on: MKN7; test: Proliferation inhibition of stomach cancer cells; assay type: cell-based; settings: Homo sapiens, MKN-7
Description: as §5, §8

[28] = tested on: St-4; test: Proliferation inhibition of stomach cancer cells; assay type: cell-based; settings: Homo sapiens
Description: as §5, §8

[29] = tested on: central nervous system cancer cells; test: Proliferation inhibition, central nervous system cancer cell panel (summary); assay type: cell-based; settings: in general with respect to various central nervous system cancer cells; read-out: cytotoxic activity (extent of effective concentration)
Source text: as §5

[30] = tested on: colon cancer cells; test: Proliferation inhibition, colon cancer cell panel (summary); assay type: cell-based; settings: all of the five types of colon cancer cell lines; read-out: effective concentration
Description: as §5, §6

[31] = tested on: ovarian cancer cells; test: Proliferation inhibition, ovarian cancer cell panel (summary); assay type: cell-based; settings: all of the five types of ovarian cancer cell lines; read-out: effective concentration
Description: as §5, §7

[32] = tested on: stomach cancer cells; test: Proliferation inhibition, stomach cancer cell panel (summary); assay type: cell-based; settings: all of the six types of stomach cancer cell lines; read-out: effective concentration
Description: as §5, §8

SMILES	IC50 [1] [nM]	The evaluations (proteasome inhibition activity) [6]	GI50 [7] [nM]	GI50 [8] [nM]	GI50 [9] [nM]	GI50 [10] [nM]	GI50 [11] [nM]	GI50 [12] [nM]	GI50 [13] [nM]	GI50 [14] [nM]	GI50 [15] [nM]	GI50 [16] [nM]	GI50 [17] [nM]	GI50 [18] [nM]	GI50 [19] [nM]	GI50 [20] [nM]	GI50 [21] [nM]	GI50 [22] [nM]	GI50 [23] [nM]	GI50 [24] [nM]	also measured
c1ccc(C2=C(c3ccc(OCCN4CCCCC4)cc3)c3ccc(OCCN4CCCCC4)cc3CC2)cc1 [Naforidaifen C, 4-[4-(2-piperidine-1-yl-ethoxy)phenyl]-7-(2-piperidine-1-yl-ethoxy)-3-phenyl-1,2-dihydronaphthalene]	3200	positive	1740	1740	1480	1510	1820	1480	1350	1170	1380	550	1820	1660	2090	1260	2400	2040	1660	2510	remaining activity at 10 µM [1]: 25.9%; IC50 [2]: 5100 nM; remaining activity at 10 µM [2]: 31.3%; IC50 [3]: > 10000 nM; remaining activity at 10 µM [3]: 196%; Cathepsin B inhibition [4]: none; α-chymotrypsin inhibition [5]: none; Proteasome selectivity [6]: present; GI50 [25]: 2140 nM; GI50 [26]: 1200 nM; GI50 [27]: 1550 nM; GI50 [28]: 1580 nM; IC50 [29]: 1400 to 1900 nM
c1ccc(C2=C(c3ccc(OCCN4CCCCCC4)cc3)c3ccc(OCCN4CCCCCC4)cc3CC2)cc1 [Naforidaifen F, 4-[4-(2-hexahydro-1H-azepin-1-yl-ethoxy)phenyl]-7-(2-hexahydro-1H-azepin-1-yl-ethoxy)-3-phenyl-1,2-dihydronaphthalene]	4300	positive	1700	1780	1660	1740	1700	1480	1070	1230	1230	501	1590	1410	1780	1320	2000	1910	1550	1820	remaining activity at 10 µM [1]: 34.2%; IC50 [2]: 5100 nM; remaining activity at 10 µM [2]: 39.1%; IC50 [3]: > 10000 nM; remaining activity at 10 µM [3]: 251%; Cathepsin B inhibition [4]: none; α-chymotrypsin inhibition [5]: none; Proteasome selectivity [6]: present; GI50 [25]: 1580 nM; GI50 [26]: 1170 nM; GI50 [27]: 1230 nM; GI50 [28]: 1580 nM; IC50 [30]: 500 to 1500 nM; IC50 [31]: 1200 to 1900 nM; IC50 [32]: 1100 to 1800 nM
CN(C)CCCOc1ccc(C2=C(c3ccccc3)CCc3cc(OCCCN(C)C)ccc32)cc1 [Naforidaifen G, 4-[4-(3-dimethylamino-1-yl-propoxy)phenyl]-7-(3-dimethylamino-1-yl-propoxy)-3-phenyl-1,2-dihydronaphthalene]	> 10000	negative	1580	1780	1480	1620	1780	1480	1290	1100	1290	490	1660	1510	1780	1290	1860	1740	1510	1620	remaining activity at 10 µM ([1]; Concentration 10 μM): 105%; GI50 [25]: 1480 nM; GI50 [26]: 1150 nM; GI50 [27]: 1320 nM; GI50 [28]: 1480 nM; IC50 [29]: 1400 to 1900 nM; IC50 [31]: 1200 to 1900 nM; IC50 [32]: 1100 to 1800 nM

From patent US8183235B2, “Dihydronaphthalene compound and use thereof” (Tokyo University of Science Educational Foundation …, priority 2007, dated 2012)
